Experimental data reported in PubChem BioAssay (NCI).
Several values for one entry are separate records, joined by “and”; a condition that tells them apart may be missing. Identical values can stand only once.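 Assay format: 96-well plates, 48-hour exposure. The concentration for 50% growth inhibition is given as GI50. Definition used: TGI = concentration required for complete inhibition of growth.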

Key:
Test in all cases: inhibition of tumour cell growth, NCI panel, 48 h
[1] = test system: NCI-H226 lung
[2] = test system: SK-MEL-5 melanoma
[3] = test system: LOX IMVI melanoma
[4] = test system: OVCAR-3 ovarian
[5] = test system: HCT-15 colon
[6] = test system: MOLT-4 leukemia
[7] = test system: MALME-3M melanoma
[8] = test system: SNB-75 CNS
[9] = test system: SW-620 colon
[10] = test system: SNB-19 CNS

SMILES	TGI [1]	TGI [2]	TGI [3]	TGI [4]	TGI [5]	TGI [6]	TGI [7]	TGI [8]	TGI [9]	TGI [10]	GI50 [1]	GI50 [2]	GI50 [3]	GI50 [4]	GI50 [5]	GI50 [6]	GI50 [7]	GI50 [8]	GI50 [9]	GI50 [10]
CC(=O)OC1C(COC(N)=O)OC(n2c(-c3ccc(C)cc3)cc(-c3ccccc3)c(C#N)c2=O)C(OC(C)=O)C1OC(C)=O (stereo not drawn)	> 100 µM	> 100 µM	> 100 µM	> 100 µM	> 100 µM	> 100 µM	> 100 µM	> 100 µM	> 100 µM	> 100 µM										
CC[n+]1c(/C=C/c2ccc(N3CCCC3)cc2)cccc1/C=C/c1ccc(N2CCCC2)cc1	1.49 µM	0.274 µM	1.62 µM and 1.45 µM	0.811 µM	1.23 µM		2.13 µM	0.88 µM	1.11 µM and 1.03 µM	1.55 µM	0.146 µM	0.116 µM	0.22 µM and 0.145 µM	0.255 µM	0.332 µM	0.128 µM and 0.354 µM	0.293 µM	0.16 µM	0.287 µM and 0.233 µM	0.31 µM
CN(CC(=O)O)S(=O)(=O)c1ccc(Cl)cc1	> 100 µM	> 100 µM	> 100 µM	> 100 µM	> 100 µM	> 100 µM	> 100 µM	> 100 µM	> 100 µM	> 100 µM										
Cc1ccc(S(=O)OC2c3ccccc3Cc3ccccc32)cc1 (stereo not drawn)	37.1 µM	37.1 µM	28.8 µM	44.5 µM	44.5 µM	75.7 µM	26.7 µM	34.6 µM	59.6 µM	59 µM										
S=C1NC(c2ccccc2)=NC(Cc2ccccc2)(c2ccccc2)N1c1ccccc1 (stereo not drawn)	> 100 µM	> 100 µM	> 100 µM	> 100 µM	> 100 µM	> 100 µM	> 100 µM	57.1 µM	> 100 µM	> 100 µM										
COc1cc(/C=C(\C)c2ccc3c(c2)OCO3)cc(OC)c1OC	> 100 µM	24.2 µM	> 100 µM	> 100 µM	> 100 µM	75.9 µM	62.1 µM	37.8 µM	95 µM	> 100 µM										
COc1cc2cc(Oc3ccc(NC(=O)Nc4ccc(F)c(C(F)(F)F)c4)cc3)c(C)nc2cc1OCCN1CCOCC1	13.2 µM	2.36 µM	2.86 µM	13.6 µM	4.19 µM	11.4 µM	3.24 µM	7.45 µM	9.86 µM	19.3 µM	2.55 µM	1.14 µM	1.44 µM	2.94 µM	1.73 µM	1.86 µM	1.57 µM	1.96 µM	3.34 µM	3.96 µM
Cc1ccc(C)c(N2C(=O)C(=O)C(c3nc4ccccc4s3)C(=O)C2=O)c1	> 100 µM	> 100 µM	> 100 µM	> 100 µM	> 100 µM	> 100 µM	> 100 µM	> 100 µM	> 100 µM	> 100 µM										
Nc1n[nH]c2ccc([C@H]3[C@@H]4C5CCC(C5)[C@@H]4c4c(ccc5[nH]ncc45)N3S(=O)(=O)C3CC3)cc12 (stereo partly drawn)	10.1 µM	1.29 µM	6.45 µM	7.16 µM	> 28.8 µM		40.9 µM	2.42 µM	> 33.7 µM	> 38.3 µM	0.441 µM	0.251 µM	0.303 µM	0.181 µM	0.198 µM	0.184 µM	0.326 µM	0.138 µM	0.203 µM	0.21 µM
CCOC(=O)Nc1nc(-c2ccccc2)c(C)s1	> 100 µM	> 100 µM	> 100 µM	> 100 µM	> 100 µM	45.5 µM	> 100 µM	> 100 µM	> 100 µM	> 100 µM										
CN(CCNc1ccc(C(=N)N)cc1)c1ccc(C(=N)N)cc1	> 100 µM	28.3 µM	> 100 µM	> 100 µM	> 100 µM	> 100 µM	> 100 µM	> 100 µM	> 100 µM	> 100 µM	3.81 µM	13.2 µM	> 100 µM	37.3 µM	31.2 µM	> 100 µM	26.6 µM	27.6 µM	> 100 µM	27.8 µM
Nc1ncnc2occ(-c3ccc(NC(=O)Nc4cc(C(F)(F)F)ccc4F)cc3)c12	18.7 µM and 7.01 µM	7.02 µM and 6.93 µM	14.9 µM and 10.2 µM	12.1 µM and 9.52 µM	21.7 µM and 13.5 µM	23.6 µM and 14.4 µM	17.6 µM and 12 µM	9.56 µM and 10.3 µM	23.7 µM and 12.1 µM	23.3 µM and 19.5 µM	0.717 µM and 0.929 µM	3.56 µM and 3.57 µM	4.83 µM and 2.69 µM	5.44 µM and 3.61 µM	6.31 µM and 3.97 µM	7.47 µM and 3.7 µM	7.15 µM and 4.35 µM	3.87 µM and 3.93 µM	7.71 µM and 4.14 µM	8.29 µM and 5.71 µM
N#CCC(=O)N/N=C(/C(=O)Nc1ccccc1)C1C(=O)N(c2ccccc2)N=C1N (stereo not drawn)	> 100 µM	> 100 µM	> 100 µM	> 100 µM	> 100 µM	> 100 µM	> 100 µM	> 100 µM	> 100 µM	> 100 µM										
NNC(=S)N/N=C/c1ccccn1	13.8 µM	22.3 µM	> 100 µM	> 100 µM	> 100 µM	> 100 µM	> 100 µM	11.4 µM	> 100 µM	> 100 µM	2.41 µM	2.63 µM	2.3 µM	3.02 µM	1.03 µM	3.34 µM	5.19 µM	1.72 µM	3.89 µM	3.57 µM
Cc1cc2c(=O)cc(-c3ccc(O)cc3)oc2c(C(=O)O)c1C	> 100 µM	> 100 µM	> 100 µM	> 100 µM	> 100 µM	> 100 µM	> 100 µM	> 100 µM	> 100 µM	> 100 µM										
CC12OC(C(=O)C13CC3)C1C(=O)c3cccc(O)c3C(=O)C12 (stereo not drawn)	78.5 µM	> 100 µM	> 100 µM	19.9 µM	> 54.8 µM	> 100 µM	14 µM	> 37.4 µM	> 100 µM	40.1 µM	22.9 µM	6.79 µM	5.1 µM	2.49 µM	9.82 µM	1.83 µM	5.31 µM	12.5 µM	4.41 µM	10.4 µM
